This assay deals with P388 leukemia ip, CD2F1 mice, survival T/C. Put plainly: NCI In Vivo Anticancer Drug Screen. Data for tumor model P388 Leukemia (intraperitoneal) in CD2F1 (CDF1) mice. The following applies: endpoint: median survival time, higher = longer survival. In short, it runs like this: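 Mice carrying the transplanted tumor received test compound or vehicle. Survival was recorded in each group, and the value is the treated-group measurement divided by that of the vehicle-treated control group.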

Where [1] appears, read: dose: 6.25 mg/kg/injection, schedule: Q01DX009 (ip), vehicle: Klucel (hydroxypropylcellulose) (HPC).
Where [2] appears, read: dose: 12.5 mg/kg/injection, schedule: Q01DX009 (ip), vehicle: Klucel (hydroxypropylcellulose) (HPC).
[3] abbreviates: dose: 50.0 mg/kg/injection, schedule: Q01DX009 (ip), vehicle: saline with Tween-80.
[4] abbreviates: dose: 100.0 mg/kg/injection, schedule: Q01DX009 (ip), vehicle: saline with Tween-80.
Where [5] appears, read: dose: 200.0 mg/kg/injection, schedule: Q01DX009 (ip), vehicle: saline with Tween-80.
The mark [6] stands for this setting: dose: 60.0 mg/kg/injection, schedule: Q01DX005 (ip), vehicle: Klucel (hydroxypropylcellulose) (HPC).
Where [7] appears, read: dose: 120.0 mg/kg/injection, schedule: Q01DX005 (ip), vehicle: Klucel (hydroxypropylcellulose) (HPC).
The mark [8] stands for this setting: dose: 240.0 mg/kg/injection, schedule: Q01DX005 (ip), vehicle: Klucel (hydroxypropylcellulose) (HPC).
The mark [9] stands for this setting: dose: 50.0 mg/kg/injection, schedule: Q01DX005 (ip), vehicle: saline with Tween-80.
Setting [10] is: dose: 100.0 mg/kg/injection, schedule: Q01DX005 (ip), vehicle: saline with Tween-80.
Where [11] appears, read: dose: 50.0 mg/kg/injection, schedule: Q01DX009 (ip), vehicle: saline.
Setting [12] is: dose: 100.0 mg/kg/injection, schedule: Q01DX009 (ip), vehicle: saline.
Where [13] appears, read: dose: 200.0 mg/kg/injection, schedule: Q01DX009 (ip), vehicle: saline.
[14] abbreviates: dose: 100.0 mg/kg/injection, schedule: Q01DX009 (ip), vehicle: Klucel (hydroxypropylcellulose) (HPC).

Each structure is given as a SMILES string. Values joined by “and” are separate entries in the source; they are usually repeats but may differ in a detail not shown here. Equal values may be shown once. Toxic doses and inconclusive results are not listed.

For `COCCOC1=C(N2CC2)C(=O)C(OCCOC)=C(N2CC2)C1=O`, the T/C runs as follows: (dose: 1.87 mg/kg/injection, schedule: Q01DX009 (ip), vehicle: saline) 204 % of control; (dose: 2.2 mg/kg/injection, schedule: Q04DX003 (ip), vehicle: saline) 113 % of control; (dose: 3.3 mg/kg/injection, schedule: Q04DX003 (ip), vehicle: saline) 122 % of control; (dose: 3.75 mg/kg/injection, schedule: Q01DX009 (ip), vehicle: saline) 118 % of control.
For `C[N+](C)(C)CCCOC1=Nc2ccccc2O/C1=C/c1ccccc1`, the T/C was 96 % of control (dose: 3.12 mg/kg/injection, schedule: Q01DX009 (ip), vehicle: Klucel (hydroxypropylcellulose) (HPC)); 92 % of control under setting [1]; 98 % of control and 104 % of control under setting [2].
For the compound `Cc1cc(Cl)ccc1NC(=O)C(=O)C(C#N)c1c(Cl)cccc1Cl` (configuration not stated), the T/C (dose: 100.0 mg/kg/injection, schedule: Q04DX002 (ip), vehicle: saline with Tween-80) is 101 % of control; the T/C (dose: 200.0 mg/kg/injection, schedule: Q04DX002 (ip), vehicle: saline with Tween-80) was 105 % of control; the T/C (dose: 400.0 mg/kg/injection, schedule: Q04DX002 (ip), vehicle: saline with Tween-80) is 100 % of control.
Regarding `CC1=C(c2ccccc2)C(=O)OC1(c1ccccc1)c1ccccc1`, the T/C (dose: 50.0 mg/kg/injection, schedule: Q01DX001 (ip), vehicle: Klucel (hydroxypropylcellulose) (HPC)) is 91 % of control; the T/C (dose: 100.0 mg/kg/injection, schedule: Q01DX001 (ip), vehicle: Klucel (hydroxypropylcellulose) (HPC)) was 88 % of control; the T/C (dose: 200.0 mg/kg/injection, schedule: Q01DX001 (ip), vehicle: Klucel (hydroxypropylcellulose) (HPC)) was 89 % of control.
With `COc1ccc(C2OC(=O)c3ncccc32)cc1` (configuration not stated), the T/C reads like this: under setting [3], 102 % of control; under setting [4], 104 % of control; under setting [5], 104 % of control.
Turning to `CC(C)c1cccc(C(C)C)c1N1C(=O)C(=O)C(c2nc3ccccc3s2)C(=O)C1=O`, the T/C reads like this: (dose: 60.0 mg/kg/injection, schedule: Q01DX005 (ip), vehicle: saline with Tween-80) 103 % of control; (dose: 120.0 mg/kg/injection, schedule: Q01DX005 (ip), vehicle: saline with Tween-80) 102 % of control; (dose: 240.0 mg/kg/injection, schedule: Q01DX005 (ip), vehicle: saline with Tween-80) 103 % of control.
Take `CCN1/C(=C\C2=C([O-])C(=C/c3sc4ccccc4[n+]3CC)/C2=O)Sc2ccccc21`: the T/C is 103 % of control under setting [6], 119 % of control under setting [7] and 86 % of control under setting [8].
`CCCCN(CCCC)CCC(O)c1cc(-c2ccc(C(F)(F)F)cc2)nc(-c2ccc(C(F)(F)F)cc2)c1` (configuration not stated): the T/C was 111 % of control under setting [3], 106 % of control under setting [4] and 101 % of control under setting [5].
On to `CCCC1C(CC)C=C(CC)C(O)C1(CC)CO` (configuration not stated), for which the T/C under setting [9] was 97 % of control; the T/C under setting [10] is 97 % of control; the T/C (dose: 200.0 mg/kg/injection, schedule: Q01DX005 (ip), vehicle: saline with Tween-80) was 97 % of control.
As for `S=P([S][Sn]([S]P(=S)(c1ccccc1)c1ccccc1)([c]1ccccc1)[c]1ccccc1)(c1ccccc1)c1ccccc1`, the T/C runs as follows: (dose: 1.56 mg/kg/injection, schedule: Q01DX005 (ip), vehicle: Klucel (hydroxypropylcellulose) (HPC)) 108 % of control; (dose: 3.12 mg/kg/injection, schedule: Q01DX005 (ip), vehicle: Klucel (hydroxypropylcellulose) (HPC)) 117 % of control.
With `C[n+]1c(-c2cccc3ccccc23)c2cc([N+](=O)[O-])ccc2c2ccccc21`, the T/C by setting is: (dose: 4.0 mg/kg/injection, schedule: Q01DX009 (ip), vehicle: Klucel (hydroxypropylcellulose) (HPC)) 114 % of control; (dose: 8.0 mg/kg/injection, schedule: Q01DX009 (ip), vehicle: Klucel (hydroxypropylcellulose) (HPC)) 115 % of control; (dose: 8.0 mg/kg/injection, schedule: Q04DX003 (ip), vehicle: Klucel (hydroxypropylcellulose) (HPC)) 98 % of control; (dose: 16.0 mg/kg/injection, schedule: Q01DX009 (ip), vehicle: Klucel (hydroxypropylcellulose) (HPC)) 119 % of control; (dose: 16.0 mg/kg/injection, schedule: Q04DX003 (ip), vehicle: Klucel (hydroxypropylcellulose) (HPC)) 108 % of control; (dose: 32.0 mg/kg/injection, schedule: Q01DX009 (ip), vehicle: Klucel (hydroxypropylcellulose) (HPC)) 114 % of control. The T/C was 114 % of control (dose: 32.0 mg/kg/injection, schedule: Q04DX003 (ip), vehicle: Klucel (hydroxypropylcellulose) (HPC)) and 106 % of control (dose: 64.0 mg/kg/injection, schedule: Q04DX003 (ip), vehicle: Klucel (hydroxypropylcellulose) (HPC)).
`CC[C@@H]1O[C@@H]([C@@H]2CC[C@](O)([C@]3(C)CC[C@@H]([C@@H](C)[C@@]4(O)CC[C@H](C)[C@@H](C[C@@]5(O)O[C@@H]([C@@H](C)[C@H](O)C[C@H]6CC[C@H](C)[C@@H]([C@@H](C)C(=O)O)O6)CC[C@@H]5C)O4)O3)O2)CC[C@@]1(C)O`: the T/C by setting is: (dose: 0.12 mg/kg/injection, schedule: Q01DX009 (ip), vehicle: saline with Tween-80) 109 % of control; (dose: 0.25 mg/kg/injection, schedule: Q01DX009 (ip), vehicle: saline with Tween-80) 111 % of control.
For `CC1=CC2C(c3ccccc3)Nc3ccccc3N2C1=O` (configuration not stated), the T/C reads like this: under setting [11], 94 % of control; under setting [12], 100 % of control; under setting [13], 94 % of control.
For `CC(C)(C)OC(=O)NC(Cc1ccccc1)C(=O)O` (configuration not stated), the T/C was 101 % of control and 105 % of control under setting [1]; 107 % of control under setting [2]; 100 % of control and 88 % of control (dose: 25.0 mg/kg/injection, schedule: Q01DX009 (ip), vehicle: Klucel (hydroxypropylcellulose) (HPC)); 111 % of control and 88 % of control (dose: 50.0 mg/kg/injection, schedule: Q01DX009 (ip), vehicle: Klucel (hydroxypropylcellulose) (HPC)); 110 % of control and 97 % of control under setting [14]; 107 % of control and 97 % of control (dose: 200.0 mg/kg/injection, schedule: Q01DX009 (ip), vehicle: Klucel (hydroxypropylcellulose) (HPC)).
As for `CCCCCCCCCCCCCCOC(=O)C(N)Cc1ccc(O)cc1` (configuration not stated), the T/C was 100 % of control under setting [6], 100 % of control under setting [7] and 100 % of control under setting [8].
As for `C=[CH][Sn][CH2]CCC`, the T/C under setting [14] is 112 % of control.
`CN(C)CCCOC1=Nc2ccccc2O/C1=C/c1cccs1`: the T/C reads like this: (dose: 25.0 mg/kg/injection, schedule: Q04DX003 (ip), vehicle: saline) 94 % of control; (dose: 50.0 mg/kg/injection, schedule: Q04DX003 (ip), vehicle: saline) 94 % of control; (dose: 100.0 mg/kg/injection, schedule: Q04DX003 (ip), vehicle: saline) 100 % of control and 94 % of control.
With `COc1cc(/C=N/n2cnnc2)cc(OC)c1OC`, the T/C is 100 % of control under setting [12]; 108 % of control under setting [13]; 100 % of control (dose: 400.0 mg/kg/injection, schedule: Q01DX009 (ip), vehicle: saline).
Consider `O=c1[nH]nc(-c2ccc(Br)cc2)s1`, for which the T/C was 98 % of control (dose: 100.0 mg/kg/injection, schedule: Q04DX003 (ip), vehicle: saline with Tween-80); 100 % of control (dose: 200.0 mg/kg/injection, schedule: Q04DX003 (ip), vehicle: saline with Tween-80); 99 % of control (dose: 400.0 mg/kg/injection, schedule: Q04DX003 (ip), vehicle: saline with Tween-80).
Consider `N#CC12c3ccccc3C(c3ccccc31)C1C(=O)C=CC(=O)C12` (configuration not stated), for which the T/C (dose: 12.5 mg/kg/injection, schedule: Q01DX009 (ip), vehicle: saline) is 111 % of control; the T/C (dose: 25.0 mg/kg/injection, schedule: Q01DX009 (ip), vehicle: saline) is 106 % of control; the T/C under setting [11] was 92 % of control and 96 % of control.
With `CCCCCNc1ncnc2[nH]ncc12`, the T/C under setting [9] was 96 % of control and the T/C under setting [10] is 102 % of control.

For the origin of these results see PubChem BioAssay AID330 (DTP/NCI, 2004).
